According to US20060160773A1, “Combretastatin derivatives with cytotoxic action” (priority 2003, published 2006):
Like-named read-outs stand apart in the source and are kept apart here. Marks after values point to notes of the source that are not given here.

Columns and labels:
[1] = test system: Bovine microcirculatory endothelial cells (BMEC); experiment: Cytotoxicity test (sulforodamine B), BMEC; format: cell-based; details: read-out: IC50 ± SE
Protocol: (§1) The cytotoxic effect of our derivatives was evaluated in series of human and murine cell lines.
Bovine microcirculatory endothelial cells (BMEC), isolated from bovine adrenal glands, were maintained in culture in DMEM containing 20% FBS, 50 μg/ml of bovine brain extract (BBE), 50 units/ml of heparin (SIGMA), 100 units/ml of gentami-cin (SIGMA) and 10 mg/ml of L-glutamine (Hyclone). EA-hy926, an immortalised hybridoma of HUVEC and adenocarcinoma cells, obtained from the University of Bari Department of Biomedical Sciences and Human Oncology, was cultured in DMEM added with 10% FBS and gentamicin.
(§2) For the cytotoxicity test the cells were seeded at variable densities according to cell type in 96-well plates in normal culture medium (200 μl/well) and incubated for 24 hours at 37° C. On the next day, the study substances were added at scalar concentrations and the cells were incubated for a further 24 hours at 37° C. in a humidified atmosphere containing 5% CO2. At the end of the incubation period the medium containing the substances was removed and three washings with PBS were performed. At the end of the washings 200 μl/well of fresh medium were added and the plates were incubated at 37° C. for a further 48 hours. At the end of this incubation period the culture medium was removed by overturning the plates and 200 μl/well of PBS and 50 μl of 80% cold trichloroacetic acid (TCA) were added. The plates were then incubated in ice. After 1 h the TCA was removed, the plates were washed three times by immersion in distilled water and dried first on blotting paper and then in the oven. 200 μl of 0.4% sulforodamine B in 1% acetic acid were then added to all wells. The plates were incubated at room temperature for a further 30 minutes. The sulforodamine B was removed by overturning, the plates were washed three times by immersion in 1% acetic acid, and then dried first on blotting paper and then in the oven. 200 μl of Tris base 10 mM were then added to all wells and the plates were placed under stirring for at least 20 min. The optical density was measured by spectrophotometric readout at 540 nm.
(§3) In the same table are reported the IC50 of ST2897, ST2898 and ST2899 on BMEC.

[2] = test system: MES-SA human uterine sarcoma; experiment: Cytotoxicity test (sulforodamine B), MES-SA; format: cell-based; details: read-out: IC50 ± SE
Protocol: as §1
(§4) The following cell lines, purchased from ATCC, were cultured according to the manufacturer's instructions: MeWo human melanoma, NCI-H460 human lung cancer, LoVo human colon adenocarcinoma, PC3 human prostate carcinoma, MES-SA human uterine sarcoma, HCT 116 human colorectal carcinoma, MCF-7 human breast carcinoma.
as §2, §3

[3] = test system: Human umbilical vein endothelial cells (HUVEC); experiment: Cytotoxicity test (sulforodamine B), HUVEC; format: cell-based; details: read-out: IC50 ± SE
Protocol: as §1
Human umbilical vein endothelial cells (HUVEC), from the BioWhittaker company, were maintained in EGM-2 culture medium (BioWhittaker).
as §2, §3

[4] = test system: human NCI-H460 lung cancer cells; experiment: Anticancer activity in animal model of human lung carcinoma (NCI-H460 s.c. in nude CD1 mice); format: in vivo
Protocol: The anticancer activity of ST2495 and ST2496 was assayed in an animal model of human lung carcinoma.
In this model, human NCI-H460 lung cancer cells at a density of 3×10^6 cells/mouse were injected subcutaneously in the right flank of nude CD1 mice. […]
All the animals were weighed during the course of the treatment to adjust the drug administration volume and to record the percentage loss of body weight (% BWL).
Tumour growth was assessed by measuring the shorter diameter (width) and the longer diameter (length) of each tumour twice a week with a Vernier caliper, and the anticancer activity was evaluated in terms of percentage inhibition of tumour growth. The tumour volume was calculated using the following formula: tumour volume (TV) in mm^3=[length (mm)×width (mm)^2]/2. The percentage inhibition (% TVI) was calculated according to the following equation: 100−[(mean tumour volume of the treated group/mean tumour volume of the control group)×100]. A value of P≦0.05 was regarded as statistically significant.

MeWo human melanoma = experiment: Cytotoxicity test (sulforodamine B), MeWo; format: cell-based; details: read-out: IC50 ± SE
Protocol: as §1, §4, §2, §3

[5] = test system: B16/BL6 murine melanoma line; experiment: Cytotoxicity test (sulforodamine B), B16/BL6; format: cell-based
Protocol: as §1
The B16/BL6 murine melanoma line, obtained from the M. Negri Institute in Milan, was cultured in DMEM containing 10% FBS and antibiotics.
as §2, §3

[6] = test system: MCF-7 human breast carcinoma; experiment: Cytotoxicity test (sulforodamine B), MCF-7; format: cell-based
Protocol: as §1, §4, §2, §3

[7] = test system: NCI-H460 human lung cancer; experiment: Cytotoxicity test (sulforodamine B), NCI-H460; format: cell-based
Protocol: as §1, §4, §2, §3

[8] = test system: HT29 human colon adenocarcinoma line; experiment: Cytotoxicity test (sulforodamine B), HT29; format: cell-based
Protocol: as §1
(§5) The M109 murine lung cancer line, the HT29 human colon adenocarcinoma line, the A2780 human ovarian carcinoma line, obtained from the Milan Tumour Institute, were cultured in RPMI containing 10% FBS and antibiotics.
as §2, §3

[9] = test system: A2780 human ovarian carcinoma line; experiment: Cytotoxicity test (sulforodamine B), A2780; format: cell-based
Protocol: as §1, §5, §2, §3

[10] = test system: HCT 116 human colorectal carcinoma; experiment: Cytotoxicity test (sulforodamine B), HCT 116; format: cell-based
Protocol: as §1, §4, §2, §3

[11] = Evaluation of cardiovascular parameters (blood pressure, heart rate) in anaesthetised rats; format: in vivo; details: 20 or 40 mg/kg injected in the jugular vein, anaesthetised Wistar rats (FIG. 1)
Protocol: Combretastatin A4, its prodrug ST2494 and our water soluble selected compounds ST2495 and ST2496, diluted at the doses of 20 or 40 mg/kg in saline solution or for combretastatin A4 in 5% DMSO, were injected in the jugular vein of Wistar rats anaesthetised with 55 mg/kg Nembutal. The parameter considered were blood pressure and heart rate.

[12] = 24 h exposure, 48 h recovery, SRB
[13] = i.p. 30 mg/kg twice/day, qd5x/w, day 4 to day 22
[14] = i.p. 30 mg/kg, qd5x/w once a day, day 4 to day 22
[15] = i.v. 60 mg/kg, q2dx6, day 4 to day 16
[16] = i.v. 90 mg/kg, q2dx6, day 4 to day 16
[17] = p.o. 30 mg/kg twice/day, qd5x/w, day 4 to day 22
[18] = p.o. 60 mg/kg twice/day, qd5x/w, day 4 to day 22
[19] = i.v. 60 mg/kg, q2dx6, day 5 to day 17
[20] = i.v. 90 mg/kg, q2dx6, day 5 to day 17
[21] = p.o. 30 mg/kg, qdx5/w, day 4 to day 14

Molecule COc1ccc(/C=C\c2cc(OC)c3ccoc3c2)cc1O [ST2897, Cis-2-Methoxy-5-[2-(4-methoxy-benzofuran-6-yl)-vinyl]-phenol] has an IC50 ([1]; Bos taurus, Endothelial cell) of 35 ± 1.8 nM.

COc1ccc(/C=C\c2cc(OC)c3occc3c2)cc1O [ST2898, Cis-2-Methoxy-5-[2-(7-methoxy-benzofuran-5-yl)-vinyl]-phenol] gave an IC50 ([1]; Bos taurus, Endothelial cell) of 35 ± 0.3 nM.

In the case of “Disodium 6[(Z)-2-(3,4,5-trimethoxyphenyl)ethenyl]-1-benzo-thiophen-4-ol-4-O-phospohate [ST2495]”, the IC50 ([2]; MESSA, 24 h exposure, 48 h recovery, SRB) is reported as 1420 ± 49 nM, the IC50 [3, 12] is reported as 83 ± 2.06 nM and the “anticancer activity (summary in words)” value ([4]; NCI-H460 in nude mice, i.p., p.o. and i.v. routes) is reported as “proved active with all the administration routes”. For the same molecule, the “% BWL” value [4, 13] was 0%, the Mortality [4, 13] was 0/8 and the “% TVI” value ([4]; i.p. 30 mg/kg twice/day, qd5x/w, day 15 after tumor inoculation) was 75** %. For the same molecule, the “% TVI” value ([4]; i.p. 30 mg/kg twice/day, qd5x/w, day 22 after tumor inoculation) was 72** %, the “% BWL” value [4, 14] was 4% and the Mortality [4, 14] was 0/8. For the same molecule, the “% TVI” value ([4]; i.p. 30 mg/kg, qd5x/w once a day, day 15 after tumor inoculation) was 32** %, the “% TVI” value ([4]; i.p. 30 mg/kg, qd5x/w once a day, day 22 after tumor inoculation) was 38* % and the “% BWL” value [4, 15] was 1%. For the same molecule, the Mortality [4, 15] was 0/8, the “% TVI” value ([4]; i.v. 60 mg/kg, q2dx6 day 4 to 16, day 15 after tumor inoculation) was 84** % and the “% TVI” value ([4]; i.v. 60 mg/kg, q2dx6 day 4 to 16, day 22 after tumor inoculation) was 73** %. For the same molecule, the “% BWL” value [4, 16] was 0%, the Mortality [4, 16] was 0/8 and the “% TVI” value ([4]; i.v. 90 mg/kg, q2dx6 day 4 to 16, day 15 after tumor inoculation) was 81** %. For the same molecule, the “% TVI” value ([4]; i.v. 90 mg/kg, q2dx6 day 4 to 16, day 22 after tumor inoculation) was 62** %, the “% BWL” value [4, 17] was 0% and the Mortality [4, 17] was 0/8. The “% TVI” value ([4]; p.o. 30 mg/kg twice/day, qd5x/w, day 15 after tumor inoculation) was 42** %, the “% TVI” value ([4]; p.o. 30 mg/kg twice/day, qd5x/w, day 22 after tumor inoculation) was 30* % and the “% BWL” value [4, 18] was 1%. The Mortality [4, 18] was 0/8, the “% TVI” value ([4]; p.o. 60 mg/kg twice/day, qd5x/w, day 15 after tumor inoculation) was 79** % and the “% TVI” value ([4]; p.o. 60 mg/kg twice/day, qd5x/w, day 22 after tumor inoculation) was 67** %. For the same molecule, the IC50 ([1]; BMEC, 24 h exposure, 48 h recovery, SRB) was 640 ± 40 nM, the IC50 (MeWo human melanoma; [12]) was 830 ± 0.13 nM and the IC50 ([5]; B16/BL6, 24 h exposure, 48 h recovery, SRB, read-out: IC50 ± SE) was > 10000 nM. The IC50 ([6]; MCF-7, 24 h exposure, 48 h recovery, SRB, read-out: IC50 ± SE) was 693 ± 21 nM, the IC50 ([7]; NCI-H460, 24 h exposure, 48 h recovery, SRB, read-out: IC50 ± SE) was 620 ± 65 nM and the IC50 ([8]; HT29, 24 h exposure, 48 h recovery, SRB, read-out: IC50 ± SE) was > 10000 nM. It also gave an IC50 ([9]; A2780, 24 h exposure, 48 h recovery, SRB, read-out: IC50 ± SE) of 500 ± 20 nM and an IC50 ([10]; HCT-116, 24 h exposure, 48 h recovery, SRB, read-out: IC50 ± SE) of 3000 ± 102 nM.

With COc1ccc(/C=C\c2cc(OC)c3ccsc3c2)cc1O [ST2899, Cis-2-Methoxy-5-[2-(4-methoxy-benzo[b]thiophen-6-yl)-vinyl]-phenol] the IC50 ([1]; Bos taurus, Endothelial cell) was < 40 nM.

With COc1cc(/C=C\c2cc(OP(=O)(O)O)c3ccoc3c2)cc(OC)c1OC [ST2496, Disodium 6[(Z)-2-(3,4,5-trimethoxyphenyl)ethenyl]-1-benzo-furan-4-ol 4-O-phosphate] the IC50 ([2]; Homo sapiens, MES-SA) was 500 ± 50 nM, the blood pressure [11] was “did not show significant effect” and the heart rate [11] was “did not show significant effect”. The IC50 ([3]; Homo sapiens) was 85 ± 1.2 nM, the “% BWL” value [4, 19] was 1% and the Mortality [4, 19] was 0/8. For the same molecule, the “% TVI” value ([4]; i.v. 60 mg/kg, q2dx6 day 5 to 17, day 14 after tumor inoculation) was 48** %, the “% TVI” value ([4]; i.v. 60 mg/kg, q2dx6 day 5 to 17, day 21 after tumor inoculation) was 53** % and the “% BWL” value [4, 20] was 1%. For the same molecule, the Mortality [4, 20] was 0/8, the “% TVI” value ([4]; i.v. 90 mg/kg, q2dx6 day 5 to 17, day 14 after tumor inoculation) was 57*** % and the “% TVI” value ([4]; i.v. 90 mg/kg, q2dx6 day 5 to 17, day 21 after tumor inoculation) was 56** %. The “% TVI” value ([4]; p.o. 30 mg/kg, qdx5/w day 4 to 14, day 14 after tumor inoculation) was 48* %, the “% TVI” value ([4]; p.o. 30 mg/kg, qdx5/w day 4 to 14, day 21 after tumor inoculation) was 46* % and the “% BWL” value [4, 21] was 1%. For the same molecule, the Mortality [4, 21] was 0/8, the IC50 ([1]; Bos taurus, Endothelial cell) was 340 ± 16 nM and the IC50 (MeWo human melanoma; Homo sapiens) was 820 ± 7.7 nM. The IC50 ([5]; Mus musculus, B16-BL6, read-out: IC50 ± SE) was 4140 ± 490 nM, the IC50 ([6]; Homo sapiens, MCF7, read-out: IC50 ± SE) was 646 ± 29 nM and the IC50 ([7]; Homo sapiens, NCI-H460, read-out: IC50 ± SE) was 780 ± 3.4 nM. For the same molecule, the IC50 ([8]; Homo sapiens, HT-29, read-out: IC50 ± SE) was 3900 ± 70 nM, the IC50 ([9]; Homo sapiens, A2780, read-out: IC50 ± SE) was 260 ± 6 nM and the IC50 ([10]; Homo sapiens, HCT-116, read-out: IC50 ± SE) was 1680 ± 70 nM.
